Measurements taken from PMC11799985 (ACS Omega, 2024).
Entries after “also recorded” stand apart in the source; their conditions may differ. Like-named read-outs stand apart in the source and are kept apart here.

Target: T1, TbSir2rp1 (Trypanosoma brucei brucei, UniProt Q57V41)
T1 construct: The TbSir2rp1 gene was cloned into the pET24(+) expression plasmid (Novagen); His tag; made in house; host or cells: Escherichia coli BL21-Codon Plus (DE3)-RIL
T1 sequence (Q57V41 1-351): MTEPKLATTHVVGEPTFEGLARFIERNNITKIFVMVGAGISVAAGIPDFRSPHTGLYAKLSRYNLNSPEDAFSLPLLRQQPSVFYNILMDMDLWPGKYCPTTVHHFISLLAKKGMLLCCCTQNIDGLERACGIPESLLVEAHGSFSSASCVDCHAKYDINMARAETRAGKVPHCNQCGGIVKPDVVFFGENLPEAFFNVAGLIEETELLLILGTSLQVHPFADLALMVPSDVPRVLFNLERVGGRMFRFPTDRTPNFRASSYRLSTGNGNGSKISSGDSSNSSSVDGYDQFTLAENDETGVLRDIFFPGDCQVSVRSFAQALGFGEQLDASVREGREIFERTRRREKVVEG
Test: biochemical
Settings: for ligand efficiency (LE): LE = –R·T·ln(IC50)/HAC, from TbSir2rp1 IC50; for IC50: TbSir2rp1, enzyme 1 μM, NAD+ 100 μM, acetylated peptide 50 μM, 37 °C, 2 h, read-out: IC50; for Hill coefficient (nH): concentration–response curve against TbSir2rp1
Description: The acetylated peptide corresponds to the sequence Abz-Gly-Pro-acetylLys-SerGln–EDDnp, where Abz is ortho-aminobenzoic acid and EDDnp is N-[2,4-dinitrophenyl]ethylenediamine.
To halt the deacetylation reaction, 4 mM nicotinamide was used. For each pair of wells in the 96-well plate, 0.2 mg/mL of trypsin was added to only one well to hydrolyze the acetylated peptide, enabling fluorescence emission. Fluorescence was measured immediately at 420 nm with excitation at 320 nm using a SpectraMax M2 microplate reader (Molecular Devices).
Deacetylation activity was determined by the difference between the well where trypsin was added and the well without trypsin. All assays were performed in triplicate, and activity values were reported as means ± standard deviations with outliers identified and excluded from the calculations. Statistical analyses were conducted using Prism 7 software (GraphPad).
The screening of the 90 fragments was performed at a single concentration of 500 μM in triplicate. The enzyme was used at 1 μM, and the substrates NAD^+ and acetylated peptide were used at 100 and 50 μM, respectively. Incubation was carried out at 37.0 °C for 2 h. Each fragment was added to a pair of wells, with trypsin being added to only one well, as previously described for inhibitory activity calculation. […] Ligand efficiency (LE) was calculated as LE = –R·T·ln(IC50)/HAC using IC50 values instead of KD for comparison. […] The inhibition mechanism was characterized using Lineweaver–Burk plots under five concentrations of each substrate and three concentrations of the fragment. IC50 values were determined with at least seven different concentrations, and Lineweaver–Burk analysis used six concentrations.

[1] = read-out: % Inhibition TbSir2rp1, Table S2, complete fragment library, single concentration of 500 μM
[2] = read-out: % Inhibition TbSir2rp1 at 500 μM, Table 1, fragment 500 μM, triplicate, mean ± SD

Compound: O=S(=O)(c1ccc(Cl)cc1)c1ccc(Cl)cc1 [ClC1=CC=C(S(C2=CC=C(Cl)C=C2)(=O)=O)C=C1]
- inhibition at 500 µM [1]: 44 ± 12%

Compound: NC(N)=NS(=O)(=O)c1ccc(N)cc1 [N/C(N)=N\S(=O)(C1=CC=C(N)C=C1)=O]
- inhibition at 500 µM [1]: 1.8 ± 1.9%

Compound: O=[N+]([O-])c1cccc(C2=NCCO2)c1 [O=[N+](C1=CC=CC(C2=NCCO2)=C1)[O-]]
- inhibition at 500 µM [1]: 44 ± 24%

Compound: O=C1Cc2cnccc2CN1 [Fragment 8]
- inhibition at 500 µM [1]: 55 ± 4.8%
- inhibition at 500 µM [2]: 55.5 ± 4.8%

Compound: N[C@@H](Cc1ccc(O)c(O)c1)C(=O)O [O=C(O)[C@@H](N)CC1=CC=C(O)C(O)=C1]
- inhibition at 500 µM [1]: -4 ± 4.1%

Compound: Cc1ccc(S(=O)(=O)N(C)/N=C/c2cccs2)cc1 [Fragment 9]
- inhibition at 500 µM [1]: 65 ± 1.7%
- inhibition at 500 µM [2]: 64.8 ± 1.7%

Compound: CN(C)c1ccc(/C=N/c2nnc(-c3ccccc3)o2)cc1 [Fragment 4]
- ligand efficiency (LE): 0.25
- IC50: 94.4 µM
- Hill coefficient (nH): 1.10
- inhibition at 500 µM [1]: 78 ± 2.3%
- inhibition at 500 µM [2]: 78.4 ± 2.3%

Compound: Cc1ncc([N+](=O)[O-])n1CCO [CC1=NC=C([N+]([O-])=O)N1CCO]
- inhibition at 500 µM [1]: 14 ± 3.1%

Compound: CCOC(=O)c1ccc(N)cc1 [O=C(OCC)C1=CC=C(N)C=C1]
- inhibition at 500 µM [1]: 12 ± 1.4%

Compound: CCOC(=O)c1c(C)oc2nc(Cl)ccc12 [CC1=C(C(OCC)=O)C2=C(O1)N=C(Cl)C=C2]
- inhibition at 500 µM [1]: -29 ± 18%

Compound: O=C1NC(=O)C(c2ccccc2)(c2ccccc2)N1 [O=C1NC(C(C2=CC=CC=C2)(C3=CC=CC=C3)N1)=O]
- inhibition at 500 µM [1]: 52 ± 2.3%

Compound: NC(=O)N1c2ccccc2CC(=O)c2ccccc21 [O=C(N)N1C2=CC=CC=C2CC(C3=CC=CC=C31)=O]
- inhibition at 500 µM [1]: 0.85 ± 6.5%

Compound: CCOC(=O)c1c(C)oc2c1ccc[n+]2[O-] [CC1=C(C(OCC)=O)C2=C(O1)[N+]([O-])=CC=C2]
- inhibition at 500 µM [1]: -2.9 ± 10%

Compound: c1ccc(C2CN3CCSC3=N2)cc1 (stereo not shown) [C12=NC(C3=CC=CC=C3)CN1CCS2]
- inhibition at 500 µM [1]: 10 ± 1.4%

Compound: Nc1nnc(-c2ccccc2)o1 [NC1=NN=C(O1)C2=CC=CC=C2]
- inhibition at 500 µM [1]: 16 ± 0.61%

Compound: O=C(NNc1ccccc1)NNc1ccccc1 [O=C(NNC1=CC=CC=C1)NNC2=CC=CC=C2]
- inhibition at 500 µM [1]: 48 ± 1.8%

Compound: CCOC(=O)c1c(C)oc2ncccc12 [CC1=C(C(OCC)=O)C2=C(O1)N=CC=C2]
- inhibition at 500 µM [1]: -29 ± 12%

Compound: COc1cc2cn[nH]c2cn1 [COC1=NC=C(NN=C2)C2=C1]
- inhibition at 500 µM [1]: 56 ± 15%

Compound: NNC(=O)c1ccncc1 [O=C(C1=CC=NC=C1)NN]
- inhibition at 500 µM [1]: -4.9 ± 2.4%

Compound: O=c1[nH]nc(-c2ccccc2)[nH]1 [O=C1NC(C2=CC=CC=C2)=NN1]
- inhibition at 500 µM [1]: 0.91 ± 7.3%

Compound: CC1(C)CCC2=C(O1)c1ccccc1C(=O)C2=O [O=C1C2=C(OC(C)(C)CC2)C3=CC=CC=C3C1=O]
- inhibition at 500 µM [1]: 43 ± 5.2%

Compound: CCc1[nH][nH]c(=O)c1-c1cccnc1O [Fragment 3]
- ligand efficiency (LE): 0.37
- Hill coefficient (nH): 1.77
- inhibition at 500 µM [1]: 88 ± 14%
- inhibition at 500 µM [2]: 88.3 ± 14.2%

Compound: Sc1nnc(Cc2ccccc2)s1 [SC1=NN=C(CC2=CC=CC=C2)S1]
- inhibition at 500 µM [1]: 9.4 ± 1%

Compound: NC(=O)c1cnccn1 [O=C(C1=NC=CN=C1)N]
- inhibition at 500 µM [1]: 22 ± 1.5%

Compound: N=C(N)N/N=C/c1cccs1 [Fragment 10]
- inhibition at 500 µM [1]: 56 ± 4.9%
- inhibition at 500 µM [2]: 55.7 ± 4.9%

Compound: CC(=O)NCCN1C(=O)CNC1=O [O=C(CN1)N(CCNC(C)=O)C1=O]
- inhibition at 500 µM [1]: 5.8 ± 3.4%

Compound: O=C(/C=C/c1ccc(Cl)cc1)c1cccs1 [O=C(/C=C/C1=CC=C(Cl)C=C1)C2=CC=CS2]
- inhibition at 500 µM [1]: 32 ± 8.5%

Compound: O=C1CCSc2nc(-c3ccccc3)nn21 [O=C1CCSC2=NC(C3=CC=CC=C3)=NN21]
- inhibition at 500 µM [1]: 3 ± 1.7%

Compound: Cc1ccc(S(=O)(=O)n2cccc2)cc1 [O=S(N1C=CC=C1)(C2=CC=C(C)C=C2)=O]
- inhibition at 500 µM [1]: -22 ± 5.8%

Compound: CC(C)NCC1CCc2cc(CO)c([N+](=O)[O-])cc2N1 (stereo not shown)
- inhibition at 500 µM (read-out: % Inhibition TbSir2rp1): 24 ± 7.9%

Compound: O=C1C(O)=C(Nc2ccc(F)cc2)C(=O)c2ccccc21
- inhibition at 500 µM [1]: 71 ± 23%

Compound: NNC(=O)/C=C/c1ccccc1 [NNC(/C=C/C1=CC=CC=C1)=O]
- inhibition at 500 µM [1]: 42 ± 8.5%

Compound: NNC(=O)Cc1cccnc1 [O=C(NN)CC1=CN=CC=C1]
- inhibition at 500 µM [1]: 2.3 ± 22%

Compound: CS(=O)(=O)Nc1cccc(-c2nc3ccccc3[nH]2)c1
- inhibition at 500 µM [1]: -0.8 ± 4.1%

Compound: CNC(=O)c1c(C(C)C)oc2nc(N3CCCC3)ccc12 [O=C(NC)C1=C(C(C)C)OC2=C1C=CC(N3CCCC3)=N2]
- inhibition at 500 µM [1]: 47 ± 10%

Compound: Clc1cc2cn[nH]c2cn1 [Fragment 7]
- inhibition at 500 µM [1]: 61 ± 9.1%
- inhibition at 500 µM [2]: 60.6 ± 9.1%

Compound: Cc1ccc(S(=O)(=O)n2ncc3ccccc32)cc1 [CC1=CC=C(S(N2N=CC3=C2C=CC=C3)(=O)=O)C=C1]
- inhibition at 500 µM [1]: 4 ± 30%

Compound: Cc1ccc(S(=O)(=O)n2cccn2)cc1 [CC1=CC=C(S(N2N=CC=C2)(=O)=O)C=C1]
- inhibition at 500 µM [1]: 8.4 ± 20%

Compound: O=C1C(O)=C(Nc2ccccc2)C(=O)c2ccccc21 [Fragment 13]
- inhibition at 500 µM [1]: 95 ± 4.9%
- inhibition at 500 µM [2]: 95.3 ± 4.9%

Compound: CCOc1ccc2nc(N)sc2c1 [Fragment 1.4]
- inhibition of TbSir2rp1 (in words): did not inhibit; also recorded: No inhibition

Compound: C(=N\c1nncs1)/c1ccc(Sc2ccccc2)cc1
- inhibition at 500 µM [1]: 38 ± 1.7%

Compound: NC(=O)N1c2ccccc2C=Cc2ccccc21 [O=C(N)N1C2=CC=CC=C2C=CC3=CC=CC=C31]
- inhibition at 500 µM [1]: 2.1 ± 5%

Compound: CC(=O)Nc1ccccc1 [CC(NC1=CC=CC=C1)=O]
- inhibition at 500 µM [1]: 7.7 ± 21%

Compound: CCN(CC)CCOC(=O)c1ccc(N)cc1 [O=C(OCCN(CC)CC)C1=CC=C(N)C=C1]
- inhibition at 500 µM [1]: 50 ± 11%

Compound: NNS(=O)(=O)c1ccc(Cl)cc1 [NNS(=O)(C1=CC=C(Cl)C=C1)=O]
- inhibition at 500 µM [1]: 37 ± 24%

Compound: Nc1ccc(C(=O)c2ccccc2)cc1 [Fragment 1.2]
- ligand efficiency (LE): 0.37
- IC50: 80.9 µM
- Hill coefficient (nH): 0.72
- inhibition mechanism (Lineweaver–Burk plot) (for both substrates, acetylated peptide and NAD+): competitive

Compound: CC(C)(Oc1ccc(C2CC2(Cl)Cl)cc1)C(=O)O (stereo not shown) [CC(C)(OC1=CC=C(C2C(Cl)(Cl)C2)C=C1)C(O)=O]
- inhibition at 500 µM [1]: 4.9 ± 4.7%

Compound: CC1(C)CCC2=C(O1)C(=O)c1ccccc1C2=O [O=C(C1=C2OC(C)(C)CC1)C3=CC=CC=C3C2=O]
- inhibition at 500 µM [1]: 33 ± 14%

Compound: COC(=O)Nc1nc2ccc(C(=O)c3ccccc3)cc2[nH]1 [mebendazole, reference compound]
- ligand efficiency (LE): 0.24
- IC50: 121 µM
- Hill coefficient (nH): 1.25

Compound: Cn1cnc2c1c(=O)[nH]c(=O)n2C [O=C(N1)N(C)C2=C(N(C)C=N2)C1=O]
- inhibition at 500 µM [1]: 17 ± 4.4%

Compound: CCC1(c2ccccc2)C(=O)NC(=O)NC1=O [O=C(NC(C1(CC)C2=CC=CC=C2)=O)NC1=O]
- inhibition at 500 µM [1]: 2.7 ± 1.6%

Compound: Nc1cc2nc(-c3cccc(C(F)(F)F)c3)cn2cn1
- inhibition at 500 µM [1]: 19 ± 28%

Compound: C/C(=N\NC(N)=O)c1ccncc1 [C/C(C1=CC=NC=C1)=N\NC(N)=O]
- inhibition at 500 µM [1]: 31 ± 13%

Compound: Nc1cccc([N+](=O)[O-])c1 [NC1=CC=CC([N+]([O-])=O)=C1]
- inhibition at 500 µM [1]: 27 ± 0.91%

Compound: CCOC1NN=C(c2ccccc2)N1 (stereo not shown) [CCOC1NC(C2=CC=CC=C2)=NN1]
- inhibition at 500 µM [1]: -3.3 ± 1.9%

Compound: CCOc1ccc(NC(C)=O)cc1 [CC(NC1=CC=C(OCC)C=C1)=O]
- inhibition at 500 µM [1]: -5.5 ± 1.5%

Compound: Cn1c(=O)c2[nH]cnc2n(C)c1=O [O=C(N1C)N(C)C2=C(NC=N2)C1=O]
- inhibition at 500 µM [1]: -2.1 ± 3%

Compound: C1CN2CCN1CC2 [N1(CC2)CCN2CC1]
- inhibition at 500 µM [1]: 2.7 ± 2.6%

Compound: CS(=O)(=O)Nc1cccc(-c2ccccc2)c1 [CS(NC1=CC=CC(C2=CC=CC=C2)=C1)(=O)=O]
- inhibition at 500 µM [1]: 35 ± 3.7%
